What all share (type): cell-based
Data set [1] relates to E. coli ATCC 8739. Briefly: Broth microdilution MIC/MBC on planktonic cells. The following applies: Escherichia coli, ATCC8739; for MIC: E. coli ATCC 8739, 24 h at 37°C, read-out: MIC; for MBC: E. coli ATCC 8739, read-out: MBC. Here is the method:
(§1) Two Gram-positive (S. aureus ATCC 29213 and S. epidermidis ATCC 35984) and two Gram-negative (E. coli ATCC 8739 and P. aeruginosa ATCC 9027) strains, and one fungal strain (C. albicans ATCC 10231) were used for the detection of antibacterial activity of carvacrol, NAC, Ac-Cys(Allyl)-OH, and carvacrol codrugs 1–10. All tested compounds were dissolved in 20% DMSO to prepare the stock solution (100 mg/mL). The final concentration of DMSO in each well appeared to be not toxic for all studied microorganisms, as confirmed by the solvent control test included in the study.
(§2) The effects of carvacrol codrugs 1–10 and reference compounds on planktonic cells were evaluated by Minimum Inhibitory Concentration (MIC) and Minimum Bactericidal Concentration (MBC) determination using the broth microdilution method according to EUCAST guidelines. Bacterial suspensions, grown in Mueller–Hinton Broth (MHB) at logarithmic phase, were incubated on microtiter plates at a concentration of 5 x 10^5 CFU/mL, with several dilutions (0.07–40 mg/mL) for 24 h at 37°C. The MIC was defined as the lowest concentration of substances giving a complete inhibition of visible growth in comparison with a control well, and the MBC was determined as the lowest concentration at which no bacterial growth occurred on Mueller–Hinton Agar plates.
(§3) Data were obtained from at least three independent experiments performed in duplicate. The susceptibility of the bacterial strains against ciprofloxacin was used as an internal standard during MIC determinations.

Data set [2] concerns S. epidermidis ATCC 35984. Briefly: Broth microdilution MIC/MBC on planktonic cells. The following applies: Staphylococcus epidermidis, ATCC35984; for MIC: S. epidermidis ATCC 35984, 24 h at 37°C, read-out: MIC; for MBC: S. epidermidis ATCC 35984, read-out: MBC. Here is the method: as §1, §2, §3
The test system of data set [3] is S. aureus ATCC 29213. Briefly: Broth microdilution MIC/MBC on planktonic cells. The following applies: Staphylococcus aureus, ATCC29213; for MIC: S. aureus ATCC 29213, 24 h at 37°C, read-out: MIC; for MBC: S. aureus ATCC 29213, read-out: MBC. How it is done:
as §1, §2, §3

In data set [4] the test system is P. aeruginosa ATCC 9027. Briefly: Broth microdilution MIC/MBC on planktonic cells. Conditions: Pseudomonas aeruginosa, ATCC9027; for MIC: P. aeruginosa ATCC 9027, 24 h at 37°C, read-out: MIC; for MBC: P. aeruginosa ATCC 9027, read-out: MBC. How it is done:
as §1, §2, §3

In data set [5] the test system is human red blood cells (h-RBC). Briefly: Hemolytic activity. The following applies: 4% h-RBC, 1 h at 37°C; for hemolytic activity, maximum at the tested concentrations: 25 to 0.05 mg/mL. Here is the method:
Experimental protocols to study hemolysis on human red cells were approved by Ethics Committee of the University “G. d’Annunzio” Chieti-Pescara. Human red cells were from two volunteers, who signed the informed consent for this study.
Hemolytic activity of carvacrol codrugs 1–10 was tested against human red blood cells (h-RBC). Fresh human blood, collected with EDTA, was centrifuged at 3000 rpm for 5 min then washed three times with PBS pH 7.3. Red blood cells were diluted to 4% in PBS and incubated with different codrugs concentrations ranging from 25 to 0.05 mg/mL. After 1 h of incubation at 37°C, the suspensions were sedimented by centrifugation and the release of hemoglobin was determined by absorbance measurement at 405 nm and compared with a 0% hemolysis control (PBS) and a 100% hemolysis control (PBS with 1% v/v Triton X-100). The percentage of hemolysis was calculated using the following equation: Hemolysis (%) = [(OD405sample - OD4050% lysis control)/(OD405100% lysis control - OD4050% lysis contro)] X 100

In data set [6] the test system is C. albicans ATCC 10231. Briefly: Broth microdilution MIC/MFC. Conditions: Candida albicans, ATCC10231; for MIC: C. albicans ATCC 10231, 24–48 h at 37°C, read-out: MIC; for MFC: C. albicans ATCC 10231, read-out: MFC. Here is the method:
as §1
The MIC detection of C. albicans ATCC 10231 was performed using the broth microdilution method according to EUCAST guidelines in RPMI 1640 plus 2% glucose with a final inoculum of 1–5 x 10^5 CFU/mL for 24–48 h at 37°C. The Minimum Fungicidal Concentration (MFC) was determined as the lowest concentration of substances at which no fungal growth occurred on Sabouraud agar plates.
as §3

Molecules are shown by their SMILES. ≈ marks a conversion by molar mass, not a printed value. Bounds are passed on as bounds.

For `CSCC[C@H](NC(C)=O)C(=O)Oc1cc(C(C)C)ccc1C` [codrug 5, N-Ac-Met-CAR], the MIC was found to be 10000 µg/mL (≈ 30.9 mM) in data set [1]; 10000 µg/mL (≈ 30.9 mM) in data set [2]; 10000 µg/mL (≈ 30.9 mM) in data set [3]; 5000 µg/mL (≈ 15.5 mM) in data set [4]; 5000 µg/mL (≈ 15.5 mM) in data set [6]. In addition, the MBC in data set [1], in data set [2], in data set [3] and in data set [4] was 10000 µg/mL (≈ 30.9 mM) in each case. Moreover, the “concentration at which hemolytic activity is over 50%” value in data set [5] was “over 20 mg/mL”. In data set [6], the MFC was determined as 5000 µg/mL (≈ 15.5 mM).

On to `C[Se]CC[C@H](NC(C)=O)C(=O)Oc1cc(C(C)C)ccc1C` [codrug 6, N-Ac-Met(Se)-CAR], for which the MIC in data set [1] came to 5000 µg/mL (≈ 13.5 mM); in data set [2], 5000 µg/mL (≈ 13.5 mM); in data set [3] it was 10000 µg/mL (≈ 27 mM); in data set [4] it was 5000 µg/mL (≈ 13.5 mM); in data set [6] it was 150 µg/mL (≈ 0.405 mM). Further, the MBC in data set [1], in data set [2], in data set [3] and in data set [4] was 10000 µg/mL (≈ 27 mM) throughout. The “concentration at which hemolytic activity is over 50%” value in data set [5] is reported as “over 20 mg/mL”. In addition, in data set [6], the MFC was 600 µg/mL (≈ 1.62 mM).

For `Cc1ccc(C(C)C)cc1OC(=O)CCCC[C@@H]1CCSS1` [codrug 7, LA-CAR], the MIC in data set [1] is 5000 µg/mL (≈ 14.8 mM); in data set [2], 10000 µg/mL (≈ 29.5 mM); in data set [3], 10000 µg/mL (≈ 29.5 mM); in data set [4] it was 5000 µg/mL (≈ 14.8 mM); in data set [6] it was 2500 µg/mL (≈ 7.38 mM). Besides, the MBC in data set [1], in data set [2], in data set [3] and in data set [4] was 10000 µg/mL (≈ 29.5 mM) each time. Also, the “hemolytic activity, maximum at the tested concentrations” value in data set [5] is given as no more than 12%. Also, the minimal fungicidal concentration (MFC) in data set [6] is 5000 µg/mL (≈ 14.8 mM).

On to `Cc1ccc(C(C)C)cc1OC(=O)[C@@H]1CSC(=O)N1` [codrug 10, OTC-CAR], for which the MIC stood at 10000 µg/mL (≈ 35.8 mM) in data set [1]; 10000 µg/mL (≈ 35.8 mM) in data set [2]; 10000 µg/mL (≈ 35.8 mM) in data set [3]; 10000 µg/mL (≈ 35.8 mM) in data set [4]; 2500 µg/mL (≈ 8.95 mM) in data set [6]. In addition, the MBC in data set [1], in data set [2], in data set [3] and in data set [4] was 10000 µg/mL (≈ 35.8 mM) throughout. In data set [5], the “hemolytic activity, maximum at the tested concentrations” value was no more than 12%. Further, the MFC in data set [6] was 2500 µg/mL (≈ 8.95 mM).

The record behind these values is paper PMC4393269, “Carvacrol Codrugs: A New Approach in the Antimicrobial Plan” (PLoS ONE, 2015).
